Laboratory results reported in patent US9321790B2, “Pyrimidinone derivatives as antimalarial agents” (SANOFI, priority 2012, dated 2016).

How the values were obtained:
[1] = test system: Plasmodium falciparum (strain NF54); experiment: Antimalarial activity test: growth of Plasmodium falciparum in infected human erythrocytes, 3H-hypoxanthine incorporation; format: cell-based; conditions: strain NF54 sensitive to chloroquine, 72 h total incubation
Method: The compounds according to the invention underwent pharmacological trials to determine their inhibitory effect on the growth of Plasmodium falciparum (strain NF54 sensitive to inhibition with chloroquine) in an in vitro test using infected human erythrocytes. The growth of the parasites is measured via the incorporation of tritiated hypoxanthine compared with the incorporation in the absence of drug. The tests are performed in 96-well microplates (Falcon™ 96-well microtiter plates, ref. No. 353072) in RPMI 1640 solutions (10.44 g/l) (without hypoxanthine) with HEPES (5.94 g/l), NaHCO3 (2.1 g/l), neomycin ([…])+AlbumaxR II (5 g/l) supplemented with human erythrocytes with a final hematocrit of 1.25% and a final parasitemia of 0.15%.
The stock solution of the compounds is prepared at 10 mg/mL in DMSO. For the test, fresh solutions at the desired concentrations are prepared in RPMI medium. For the test, 100 μl of compound are mixed with 100 μl of infected blood. For the determination of the IC50 values, the compounds are tested in twofold serial dilution.
The plates are incubated at 37° C. under a humid atmosphere with 93% N2, 4% CO2 and 3% O2. After 48 hours, 50 μl of ^3H-hypoxanthine (=0.5 μCi) in RPMI medium are added to each well and incubation is continued for a further 24 hours. Next, the plates are washed with distilled water and the cell lyzate is transferred onto fiberglass filters. The filters are dried and the radioactivity is determined by liquid scintillation. The results in cpm are converted into percentages of inhibition. The inhibitory activity is given by the concentration that inhibits 50% of the growth of the parasite relative to a control without compound.

[2] = molecular target: human PI3Kα (Homo sapiens (Human), UniProt P42336); experiment: Human PI3Kα activity test (luciferin/luciferase ATP consumption, KinaseGlo); format: biochemical; conditions: PI3Kα (p110α/p85α), 50 μM PIP2, 2 μM ATP, 90 minutes; read-out: IC50 Human PI3Kα
Sequence of human PI3Kα (P42336 whole entry): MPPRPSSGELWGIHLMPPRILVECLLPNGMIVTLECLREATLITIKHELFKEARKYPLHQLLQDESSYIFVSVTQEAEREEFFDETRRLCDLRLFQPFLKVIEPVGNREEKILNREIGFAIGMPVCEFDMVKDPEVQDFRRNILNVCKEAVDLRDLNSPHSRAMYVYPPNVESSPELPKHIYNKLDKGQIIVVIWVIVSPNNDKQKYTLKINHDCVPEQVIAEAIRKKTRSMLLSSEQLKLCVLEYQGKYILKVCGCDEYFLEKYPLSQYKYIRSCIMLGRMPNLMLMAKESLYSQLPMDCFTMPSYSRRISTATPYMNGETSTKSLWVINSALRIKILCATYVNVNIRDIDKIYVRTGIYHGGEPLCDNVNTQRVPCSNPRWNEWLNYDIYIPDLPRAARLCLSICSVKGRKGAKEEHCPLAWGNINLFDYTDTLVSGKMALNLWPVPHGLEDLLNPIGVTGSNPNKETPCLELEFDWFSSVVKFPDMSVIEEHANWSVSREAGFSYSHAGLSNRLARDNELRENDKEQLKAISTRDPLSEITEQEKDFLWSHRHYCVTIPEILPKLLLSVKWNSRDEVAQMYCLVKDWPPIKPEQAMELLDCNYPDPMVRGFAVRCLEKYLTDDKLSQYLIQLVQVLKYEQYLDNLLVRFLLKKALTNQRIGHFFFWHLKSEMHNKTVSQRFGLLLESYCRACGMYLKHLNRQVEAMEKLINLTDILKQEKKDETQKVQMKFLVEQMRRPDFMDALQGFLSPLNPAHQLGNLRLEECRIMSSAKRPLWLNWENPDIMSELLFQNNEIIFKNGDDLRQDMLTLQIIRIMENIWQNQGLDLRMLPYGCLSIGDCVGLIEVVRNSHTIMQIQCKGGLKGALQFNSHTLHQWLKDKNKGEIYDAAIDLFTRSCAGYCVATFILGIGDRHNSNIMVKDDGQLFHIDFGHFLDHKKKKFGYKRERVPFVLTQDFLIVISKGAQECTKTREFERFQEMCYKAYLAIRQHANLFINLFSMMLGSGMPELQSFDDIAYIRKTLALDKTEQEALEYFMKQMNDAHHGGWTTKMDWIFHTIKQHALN
Sequence of human PI3Kα (P27986 whole entry partner): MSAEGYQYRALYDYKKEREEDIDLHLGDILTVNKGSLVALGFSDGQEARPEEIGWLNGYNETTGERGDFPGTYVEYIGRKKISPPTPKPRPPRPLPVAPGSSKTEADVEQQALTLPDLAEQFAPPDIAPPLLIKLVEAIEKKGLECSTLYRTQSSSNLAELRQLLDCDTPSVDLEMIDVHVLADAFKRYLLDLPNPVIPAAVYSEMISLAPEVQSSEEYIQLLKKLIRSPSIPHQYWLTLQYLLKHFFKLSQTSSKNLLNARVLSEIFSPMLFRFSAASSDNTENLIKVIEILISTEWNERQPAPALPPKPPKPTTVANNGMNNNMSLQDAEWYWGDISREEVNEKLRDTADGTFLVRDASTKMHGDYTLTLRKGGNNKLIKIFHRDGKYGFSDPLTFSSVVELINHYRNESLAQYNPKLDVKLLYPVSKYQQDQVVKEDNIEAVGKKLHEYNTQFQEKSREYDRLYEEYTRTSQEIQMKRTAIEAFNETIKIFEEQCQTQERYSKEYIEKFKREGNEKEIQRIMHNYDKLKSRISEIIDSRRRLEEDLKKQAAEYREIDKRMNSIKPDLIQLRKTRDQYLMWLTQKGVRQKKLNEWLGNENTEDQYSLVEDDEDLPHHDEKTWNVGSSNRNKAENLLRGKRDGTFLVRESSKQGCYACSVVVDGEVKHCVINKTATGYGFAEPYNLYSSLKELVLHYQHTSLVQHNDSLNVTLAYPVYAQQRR
Method: The test uses a luciferin/luciferase system to measure the concentration of ATP and its consumption during the enzymatic reaction.
After 90 minutes, the reaction is quenched by adding 20 μl/well of KinaseGlo reagent (Promega V6713). After 10 minutes in the dark, the luminescence is read using a PHERAStar microplate reader (reading at 0.8 sec/well).

[3] = Plasmodium falciparum, Erythrocyte

SMILES | IC50 [1, 3] [nM] | IC50 [2] [nM] | IC50 [1] [nM]
COc1ncccc1C(=O)CN1c2nc(N3C[C@@H]4C[C@H]3CO4)cc(=O)n2CC[C@H]1C(F)(F)F [Compound 65, (8S)-9-[2-(2-Methoxypyrid-3-yl)-2-oxoethyl]-2-(1S,4S)-2-oxa-5-azabicyclo[2.2.1]hept-5-yl-8-trifluoromethyl-6,7,8,9-tetrahydropyrimido[1,2-a]pyrimidin-4-one] | 21 | > 10000 | –
Cn1nc(CN2c3nc(N4C[C@@H]5C[C@H]4CO5)cc(=O)n3CC[C@H]2C(F)(F)F)c2ccccc21 [Compound 51, (8S)-9-(1-methyl-1H-indazol-3-ylmethyl)-2-(1S,4S)-2-oxa-5-azabicyclo[2.2.1]hept-5-yl-8-trifluoromethyl-6,7,8,9-tetrahydropyrimido[1,2-a]pyrimidin-4-one] | 65 | > 10000 | –
O=c1cc(N2C[C@@H]3C[C@H]2CO3)nc2n1CC[C@@H](C(F)(F)F)N2Cc1cccc2ncccc12 [Compound 106, (8S)-2-(1S,4S)-2-oxa-5-azabicyclo[2.2.1]hept-5-yl-9-quinolin-5-ylmethyl-8-trifluoromethyl-6,7,8,9-tetrahydropyrimido[1,2-a]pyrimidin-4-one] | 13 | > 10000 | –
O=C(CN1c2nc(N3C[C@@H]4C[C@H]3CO4)cc(=O)n2CC[C@H]1C(F)(F)F)c1cnc(OCC2CC2)nc1 [Compound 52, (8S)-9-[2-(2-Cyclopropylmethoxypyrimidin-5-yl)-2-oxoethyl]-2-(1S,4S)-2-oxa-5-azabicyclo[2.2.1]hept-5-yl-8-trifluoromethyl-6,7,8,9-tetrahydropyrimido[1,2-a]pyrimidin-4-one] | 130 | > 10000 | –
O=C(CN1c2nc(N3C[C@@H]4C[C@H]3CO4)cc(=O)n2CC[C@H]1C(F)(F)F)c1ccc(C(F)(F)F)nc1 [Compound 33, (8S)-2-(1S,4S)-2-Oxa-5-azabicyclo[2.2.1]hept-5-yl-9-[2-oxo-2-(6-trifluoromethylpyrid-3-yl)ethyl]-8-trifluoromethyl-6,7,8,9-tetrahydropyrimido[1,2-a]pyrimidin-4-one] | – | > 10000 | 4000
O=C(CN1c2nc(N3CC4CCC(C3)O4)cc(=O)n2CC[C@H]1C(F)(F)F)c1ccncc1 [Compound 75, (8S)-2-(8-oxa-3-azabicyclo[3.2.1]oct-3-yl)-9-(2-oxo-2-pyrid-4-ylethyl)-8-trifluoromethyl-6,7,8,9-tetrahydropyrimido[1,2-a]pyrimidin-4-one] | 80 | ≥ 10000 | –
C[C@@]1(C(F)(F)F)Cn2c(nc(N3C[C@@H]4C[C@H]3CO4)cc2=O)N1CC(=O)c1ccc(N)nc1 [Compound 11, (S)-1-[2-(6-Aminopyrid-3-yl)-2-oxoethyl]-2-methyl-7-(1S,4S)-2-oxa-5-azabicyclo[2.2.1]hept-5-yl-2-trifluoromethyl-2,3-dihydro-1H-imidazo[1,2-a]pyrimidin-5-one] | 40 | ≥ 10000 | –
Cc1ncccc1C(=O)CN1c2nc(N3C[C@@H]4C[C@H]3CO4)cc(=O)n2CC[C@H]1C(F)(F)F [Compound 19, (8S)-9-[2-(2-methylpyrid-3-yl)-2-oxoethyl]-2-(1S,4S)-2-oxa-5-azabicyclo[2.2.1]hept-5-yl-8-trifluoromethyl-6,7,8,9-tetrahydropyrimido[1,2-a]pyrimidin-4-one] | 24 | > 10000 | –
O=C(CN1c2nc(N3C[C@@H]4C[C@H]3CO4)cc(=O)n2CC[C@H]1C(F)(F)F)c1ccc(OCCF)c(F)c1 [Compound 64, (8S)-9-{2-[3-Fluoro-4-(2-fluoroethoxyl)phenyl]-2-oxoethyl}-2-(1S,4S)-2-oxa-5-azabicyclo[2.2.1]hept-5-yl-8-trifluoromethyl-6,7,8,9-tetrahydropyrimido[1,2-a]pyrimidin-4-one] | 39 | > 10000 | –
Cn1cc(CN2c3nc(N4C[C@@H]5C[C@H]4CO5)cc(=O)n3CC[C@H]2C(F)(F)F)c(C(F)(F)F)n1 [Compound 116, (8S)-9-(1-Methyl-3-trifluoromethyl-1H-pyrazol-4-ylmethyl)-2-(1S,4S)-2-oxa-5-azabicyclo[2.2.1]hept-5-yl-8-trifluoromethyl-6,7,8,9-tetrahydropyrimido[1,2-a]pyrimidin-4-one] | 117 | > 10000 | –
O=C(CN1c2nc(N3C[C@@H]4C[C@H]3CO4)cc(=O)n2CC[C@H]1C(F)(F)F)c1cccnc1 [Compound 7, (8S)-2-(1S,4S)-2-oxa-5-azabicyclo[2.2.1]hept-5-yl-9-(2-oxo-2-pyrid-3-ylethyl)-8-trifluoromethyl-6,7,8,9-tetrahydropyrimido[1,2-a]pyrimidin-4-one] | 10 | ≥ 10000 | –

The next compounds have a lower IC50 [2] than those just listed; values first:

IC50 [1, 3] [nM] | IC50 [2] [nM] | IC50 [1] [nM] | SMILES
75 | 840 | – | O=c1cc(N2C[C@@H]3C[C@H]2CO3)nc2n1CC[C@@H](C(F)(F)F)N2CC(O)(C1CC1)C1CC1 [Compound 103, (8S)-9-(2,2-Dicyclopropyl-2-hydroxyethyl)-2-(1S,4S)-2-oxa-5-azabicyclo[2.2.1]hept-5-yl-8-trifluoromethyl-6,7,8,9-tetrahydropyrimido[1,2-a]pyrimidin-4-one]
360 | 250 | – | CN(C)CCCOc1ccc(CCN2c3nc(N4CC5CCC(C4)O5)cc(=O)n3C[C@@]2(C)C(F)(F)F)cc1 [Compound 78, (S)-1-{2-[4-(3-Dimethylaminopropoxyl)phenyl]ethyl}-2-methyl-7-(8-oxa-3-azabicyclo[3.2.1]oct-3-yl)-2-trifluoromethyl-2,3-dihydro-1H-imidazo[1,2-a]pyrimidin-5-one]
140 | 1300 | – | O=C(CN1c2nc(N3CC4CCC(C3)O4)cc(=O)n2CC[C@H]1C(F)(F)F)c1ccccn1 [Compound 88, (8S)-2-(8-Oxa-3-azabicyclo[3.2.1]oct-3-yl)-9-(2-oxo-2-pyrid-2-ylethyl)-8-trifluoromethyl-6,7,8,9-tetrahydropyrimido[1,2-a]pyrimidin-4-one]
110 | 200 | – | O=c1cc(N2CC3CCC(C2)O3)nc2n1CC[C@@H](C(F)(F)F)N2CCCc1ccccc1 [Compound 84, (8S)-2-(8-oxa-3-azabicyclo[3.2.1]oct-3-yl)-9-(3-phenylpropyl)-8-trifluoromethyl-6,7,8,9-tetrahydropyrimido[1,2-a]pyrimidin-4-one]
9 | 2900 | – | O=c1cc(N2C[C@@H]3C[C@H]2CO3)nc2n1CC[C@@H](C(F)(F)F)N2CCc1cccnc1 [Compound 12, (8S)-2-(1S,4S)-2-oxa-5-azabicyclo[2.2.1]hept-5-yl-9-(2-pyrid-3-ylethyl)-8-trifluoromethyl-6,7,8,9-tetrahydropyrimido[1,2-a]pyrimidin-4-one]
4 | 780 | – | O=c1cc(N2C[C@@H]3C[C@H]2CO3)nc2n1CC[C@@H](C(F)(F)F)N2CC1CCOCC1 [Compound 93, (8S)-2-(1S,4S)-2-oxa-5-azabicyclo[2.2.1]hept-5-yl-9-(tetrahydropyran-4-ylmethyl)-8-trifluoromethyl-6,7,8,9-tetrahydropyrimido[1,2-a]pyrimidin-4-one]
9 | 130 | – | CC(=O)N1CCC(CN2c3nc(N4C[C@@H]5C[C@H]4CO5)cc(=O)n3CC[C@H]2C(F)(F)F)CC1 [Compound 94, (8S)-9-(1-Acetylpiperid-4-ylmethyl)-2-(1S,4S)-2-oxa-5-azabicyclo[2.2.1]hept-5-yl-8-trifluoromethyl-6,7,8,9-tetrahydropyrimido[1,2-a]pyrimidin-4-one]
20 | 3130 | – | CC(C)(CN1c2nc(N3C[C@@H]4C[C@H]3CO4)cc(=O)n2CC[C@H]1C(F)(F)F)c1ccncc1 [Compound 1, (8S)-9-(2-methyl-2-pyrid-4-ylpropyl)-2-(1S,4S)-2-oxa-5-azabicyclo[2.2.1]hept-5-yl-8-trifluoromethyl-6,7,8,9-tetrahydropyrimido[1,2-a]pyrimidin-4-one]
3 | 1040 | – | CCNC(=O)Nc1ccc(CCN2c3nc(N4C[C@@H]5C[C@H]4CO5)cc(=O)n3CC[C@H]2C(F)(F)F)cc1 [Compound 23, 1-ethyl-3-{4-[2-((8S)-8-(1S,4S)-2-oxa-5-azabicyclo[2.2.1]hept-5-yl-6-oxo-2-trifluoromethyl-3,4-dihydro-2H,6H-pyrimido[1,2-a]pyrimidin-1-yl)ethyl]phenyl}urea]
930 | 4200 | – | O=C(CN1c2nc(N3C[C@@H]4C[C@H]3CO4)cc(=O)n2CC[C@H]1C(F)(F)F)c1ccc(N2CCOCC2)cc1 [Compound 41, (8S)-9-[2-(4-Morpholin-4-ylphenyl)-2-oxoethyl]-2-(1S,4S)-2-oxa-5-azabicyclo[2.2.1]hept-5-yl-8-trifluoromethyl-6,7,8,9-tetrahydropyrimido[1,2-a]pyrimidin-4-one]
